Assays:
zebrafish [1] = conditions: modafinil given to zebrafish in bath; compared with ethanol; cited from earlier work
zebrafish [2] = experiment: Zebrafish behavioral parameter measurement (Danio Vision/Ethovision) with cluster analysis against library of Diazepam and Haloperidol; assay type: in vivo, Zebrafish (Danio rerio), AB Line 6 dpf; conditions: EGCG 0.003 mg/mL; estimated from similarity to Diazepam
Procedure: 0.3×Danieau's solution (19.3 mM NaCl, 0.23 mM KCl, 0.23 mM MgSO4, 0.2 mM Ca(NO3)2, 1.7 mM HEPES, pH 7.2) is used as a water bath.
Zebrafish is prepared by growing it under the following conditions to 6 dpf.
For each substance of known action, the reagent in which the substance was dissolved in the water bath and adjusted at a concentration of 10 μM was prepared.
(1) Add 1 ml of the water bath to each well of a 48-well plate. Transfer one zebrafish (6 dpf) per well thereto and adjust the temperature to 28° C. and maintain the temperature for from 30 minutes to 1 hour.
(2) Remove the liquid in the 48-well plate with a pipette and then add 1 ml/well of any of the reagents. […]
(§1) The repetition of light and dark periods with cycled of a light period for 3 hours (period L1)—a dark period for 10 hours (period D)—a light period for 11 hours (period L2) is performed and the behavior of zebrafish is recorded for 24 hours. […]
(§2) For each class of mobility states, the indicators DMF, IZF, DTZ, and TA are measured. […]
(§3) (2) Store the measured behavioral parameters as raw data of the following forms. • Type of reagent (any of the reagents prepared in [Preparation of reagents for production of library] or control) • Mobility state (95 to 65 (high speed), 65 to 35 (moderate speed), or 35 to 05 (low speed)) • Repetition of light and dark periods (L1, D, or L2) • Indicator (DMF, IZF, DTZ, or TA) […]

per1b = experiment: Zebrafish oligo-DNA microarray gene expression with cluster analysis together with behavioral data (EGCG vs library); assay type: in vivo, Zebrafish (Danio rerio), AB Line 6 dpf; conditions: EGCG 0.003 mg/mL; per1b clusters with L-DMT D, L-DMT L1, L-DMT L2
Procedure: This can be done by citing array data of Diazepam (GSE23157) and Haloperidol (GSE89780) from a public DB (Geo Datasets).
Based on these array data, the normalization of the data in the arrays is performed in the procedure described above using software in Gene Springs and data among arrays are normalized by a method using the Z score.
(3) Link the administration of EGCG and the change in expression levels of genes using microarray experiments.
(§4) The microarray experiments can be performed using Zebrafish oligo-DNA micro array Ver.3.0 manufactured by Agilent Technologies, Inc. according to protocol.
(§5) Based on array data obtained by this microarray experiment, the normalization of the data in the arrays is performed in the procedure described above using software in Gene Springs and data among arrays are normalized by a method using the Z score.
Processing of statistically matching and analyzing the numerical data for Diazepam and Haloperidol recorded in the library and the numerical data with the administration of EGCG was conducted by the cluster analysis as follows.
In the result of cluster analysis including data of change in expression levels of genes, the action and mechanism of EGCG can be estimated based on the Gene Ontrogy (GO) information of the gene expression data by paying attention on data having high correlation between EGCG and Diazepam (data clustered in close relation). […]

zebrafish [3] = experiment: Zebrafish behavioral parameter measurement (Danio Vision/Ethovision) with cluster analysis against library of Suvorexant and Imipramine; assay type: in vivo, MieKomachi 002 Line 8 dpf; conditions: 8beta 10 μM; estimated from similarity to Suvorexant
Procedure: 0.3×Danieau's solution (19.3 mM NaCl, 0.23 mM KCl, 0.23 mM MgSO4, 0.2 mM Ca(NO3)2, 1.7 mM HEPES, pH 7.2) is used as a water bath, and a 0.1% DMSO-containing water bath is used.
Zebrafish is prepared by growing it under the following conditions to 8 dpf.
Zebrafish: MieKomachi 002 Line 8 dpf
For each substance of known action, the reagent in which the substance was dissolved in the water bath and adjusted at a concentration of 1 μM was prepared.
(1) Add 1 ml of the water bath to each well of a 48-well plate. Transfer one zebrafish (8 dpf) per well thereto and adjust the temperature to 28° C. and maintain the temperature for from 30 minutes to 1 hour. […]
as §1, §2, §3

nfi13-6 = experiment: Zebrafish oligo-DNA microarray gene expression with cluster analysis together with behavioral data (8beta vs library); assay type: in vivo, MieKomachi 002 Line 8 dpf; conditions: 8beta 10 μM; nfi13-6 clusters with H-, M-, L-DMT D, L1, L2
Procedure: (5) Subsequently, link the administration of the substance of known action and the change in expression levels of genes using microarray experiments.
as §4
Based on array data obtained by this microarray experiment, the normalization of the data in the arrays is performed in the procedure described above using software in Gene Springs.
(3) Link the administration of 8beta and the change in expression levels of genes using microarray experiments.
The microarray experiments can be performed using zebrafish oligo-DNA micro array Ver.3.0 manufactured by Agilent Technologies, Inc. according to protocol.
as §5
Processing of statistically matching and analyzing the numerical data for Suvorexant and Imipramine recorded in the library and the numerical data with the administration of 8beta was conducted by the cluster analysis as follows. […]

Structure (SMILES): NC(=O)C[S+]([O-])C(c1ccccc1)c1ccccc1 (centres unmarked) [modafinil]
- action suggested by behavioral analysis of zebrafish (zebrafish [1]): antianxiety action

Structure (SMILES): O=C(O[C@@H]1Cc2c(O)cc(O)cc2O[C@@H]1c1cc(O)c(O)c(O)c1)c1cc(O)c(O)c(O)c1 [EGCG, epigallocatechin gallate]
- action estimated from closely related drug in cluster analysis (zebrafish [2]): sedative action
- gene expression data (per1b), cluster analysis of change in expression levels (per1b): change with correlation between EGCG and Diazepam

Structure (SMILES): C=C1C(=O)OC2C=C(C)CCC=C(C)CC(OC(=O)/C(C)=C/CO)C12 (stereo not drawn) [8beta, 8beta-(4′-hydroxytigloyloxy)costunolide]
- action estimated from closely related drug in cluster analysis (zebrafish [3]): sleep action
- gene expression data (nfi13-6), cluster analysis of change in expression levels (nfi13-6): change with correlation between 8beta and Suvorexant

From US20210062367A1, “METHOD FOR PRODUCING LIBRARY FOR USE IN PREDICTION OF ACTION OF SUBSTANCE OF INTEREST ON LIVING BODY, AND METHOD FOR […] OF SUBSTANCE OF INTEREST ON LIVING BODY BASED ON CHANGE IN ACTION PARAMETER OR THE LIKE OF ZEBRAFISH” (SUNTORY HOLDINGS LIMITED, priority 2017, published 2021)
